# Assay results as given in patent US5821261A, “Substituted saturated aza heterocycles as inhibitors of nitric oxide synthase” (Merck & Co., Inc., priority 1996, dated 1998).
# Counter-ions that a name gives are not always drawn.
# Molecular target: Human Inducible Nitric Oxide Synthase (Homo sapiens, UniProt P35228)
# Test: Inhibition of human inducible nitric oxide synthase (formation of L-[2,3,4,5-3H]citrulline from L-[2,3,4,5-3H]arginine)
# Type: biochemical
# Conditions: 1 μM L-Arg, pH 7.5, room temperature, 30 minutes, aqueous DMSO (max. 5%)
# From the text: 26, pp. 258-264. […] J Lowenstein and S. H. Snyder in Methods in Enzymology, Vol. 233, L. Packer, ed., Academic Press, NY, 1994, Ch. 26, pp. 264-269. Various assays for NOS activity have been reported in the literature and are reviewed in the following: M. E. Murphy and E. Noack in Methods in Enzymology, Vol. 233, L. Packer, ed., Academic Press, NY, 1994, Ch. 26, pp. 240-250 and J. M. Hevel and M. A. Marletta in Methods in Enzymology, Vol. 233, L. Packer, ed., Academic Press, NY, 1994, Ch. 26, pp. 250-258. Details for the assay protocols to measure NOS activity are as follows: […] The incubation buffer (100 μL) contained; 100 mM TES, pH 7.5, 5 μM FAD, 5 μM FMN, 10 μM BH4, 0.5 mM NADPH, 0.5 mM DTT, 0.5 mg/mL BSA, 2 mM CaCl2, 10 μg/mL calmodulin (bovine), 1 μM L-Arg, 0.2 μCi L-[2,3,4,5-^3 H]Arg, and the inhibitor in aqueous DMSO (max. 5%). The reaction is initiated by addition of enzyme. Incubations are performed at room temperature for 30 minutes and stopped by the addition of an equal volume of quenching buffer consisting of 200 mM sodium citrate, pH 2.2, 0.02% sodium azide. Reaction products are separated by passing through a cation exchange resin and quantitated as cpm by scintillation counting. Percent inhibition is calculated relative to enzyme incubated without inhibitor according to: […]. Illustrative of the utility of the compounds of Formula I is the ability of such compounds to inhibit NO synthase as shown in Table 1 and as measured by the assay described above: […]
row,SMILES,IC50
1,"N=C(N)SC[C@@H]1CN[C@H](C(=O)O)C1 [compound 5, (4S)-4-[(Isothioureido)methyl]-L-Proline Dihydrochloride]",111 µM
2,"COC(=O)[C@@H]1C[C@@H](CNC(=N)N)CN1 [compound 6, (4R)-4-(Guanidinomethyl)-L-Proline Methyl Ester Dihydrochloride]",11 µM

# Now those with a lower IC50, led by results:
row,IC50,SMILES
1,3.5 µM,"N=C(N)NC[C@H]1CN[C@H](C(=O)O)C1 [compound 2, (4R)-4-(Guanidinomethyl)-L-Proline Dihydrochloride]"
2,7.1 µM,"N=C(N)NC[C@@H]1CN[C@H](C(=O)O)C1 [compound 1, (4S)-4-(Guanidinomethyl)-L-Proline Dihydrochloride]"
3,2.7 µM,"N=C(N)N[C@@H]1CN[C@H](C(=O)O)C1 [compound 3, (4S)-4-Guanidino-L-Proline Dihydrochloride]"
